# Assay results taken from patent US9630989B2, “Dipeptide analogs for treating conditions associated with amyloid fibril formation” (Ramot at Tel-Aviv University Ltd., priority 2010, dated 2017).
# Non-standard residues stand in square brackets, D forms with d. Residues, ends and D or L forms follow the SMILES beside them. ξ: configuration not given here. *: point of attachment. dNMeW = CN[C@H](Cc1c[nH]c2ccccc12)C(=O)O; ξNMeW = CNC(Cc1c[nH]c2ccccc12)C(=O)O; ξW = NC(Cc1c[nH]c2ccccc12)C(=O)O; NMeAib = CNC(C)(C)C(=O)O; Boc = CC(C)(C)OC(=O)*; Aib = CC(C)(N)C(=O)O; OtBu = CC(C)(C)O*
# Experiments:
# human P-gp (PGP) = assay: Membrane permeability in MDCKII/PGP cells; type: in vitro ADME; conditions: dog, MDCK-MDR1; MDCKII cells transfected with human PGP; read-out: Permeability MDCKII/PGP A-B (apical-basolateral flux)
# Experimental: (§1) Exemplary peptide analogs as disclosed herein were tested for membrane permeability in MDCKII cells transfected with human PGP, for evaluating intestinal absorption. The data obtained in presented in Table 5 below, where A-B is the apical-basolateral flux and AI is the asymmetry index.
# P-gp (human PGP) = assay: Membrane permeability in MDCKII/PGP cells; type: in vitro ADME; conditions: dog, MDCK-MDR1; MDCKII cells transfected with human PGP; read-out: Permeability MDCKII/PGP AI (asymmetry index)
# Experimental: as §1
# [1] = Aqueous solubility at pH 7.4; type: physicochemical; conditions: aqueous medium at pH 7.4, aqueous buffer
# Experimental: The aqueous solubility of exemplary dipeptide analogs as disclosed herein was tested at pH 7.4.
# [2] = Metabolic stability in rat liver microsomes; type: in vitro ADME; conditions: % of compound remaining after 30 minutes
# Experimental: (§2) The metabolic stability of exemplary peptide analogs as disclosed herein was tested in Human and Rat liver microsomes (HLM and RLM, respectively). The obtained data is presented in Table 5 below, as % of compound remaining after 30 minutes). All of the peptides were found sufficiently stable.
# [3] = Metabolic stability in human liver microsomes; type: in vitro ADME; conditions: % of compound remaining after 30 minutes
# Experimental: as §2
# Aβ1-42 = molecular target: T1, Aβ1-42 (Homo sapiens, UniProt P05067); assay: Aβ1-42 globulomer generation / oligomer formation (Hillen protocol), gel staining and western blot; type: biochemical
# T1 construct: β-amyloid polypeptides (Aβ 1-42, >98% pure); purchased Bachem (Bubendorf, Switzerland); host or cells: chemical synthesis
# Experimental: Aβ1-42 intermediates and globulomers were produced according to Barghorn et al. [J. Neurochem. 2005 November; 95(3):834-47]. Synthetic lyophilized β-amyloid polypeptides (Aβ 1-42, >98% pure) were purchased from Bachem (Bubendorf, Switzerland). To avoid pre-aggregation, synthetic lyophilized Aβ1-42 was pretreated with HFIP. Aβ1-42 was dissolved in 100% HFIP, sonicated for 20 seconds and incubated for 2 hours at 37° C. under shaking at 100 RPM. After evaporation in a speedVac, Aβ1-42 was re-suspended in DMSO, with or without the tested peptide, to 5 mM and diluted with 20 mM NaH2PO4, 140 mM NaCl, pH 7.4, to a final concentration of 400 μM, and 1/10 volume 2% SDS (final concentration of 0.2%). The Aβ globulomers were generated by further dilution with two volumes of H2O and incubation for 18 hours or more.
# To evaluate the effect of D-Trp-Aib analogs on the transformation of the Aβ1-42 into the toxic assemblies, the tested peptides were incubated with Aβ1-42 at increasing molar ratios, and the reaction mixtures were resolved on SDS-PAGE followed by western blot analysis by a specific anti Aβ antibody (6E10) (SIGNET).
# Aβ monomers = molecular target: T2, Aβ monomers (Homo sapiens, UniProt P05067); assay: SPR binding assay (BIACORE X100); conditions: immobilized Aβ monomers, 25° C., steady-state; mean ± SD; read-out: SPR binding IC50 [nM] +/− SD (repeats)
# T2 construct: Aβ monomers were covalently coupled to one flow cell of CM7 sensor chips
# Experimental: Surface Plasmon Resonance (SPR) studies were performed using a BIACORE X100 biosensor instrument (GE Lifesciences, Uppsala, Sweden), equipped with two flow cells on a sensor chip. Aβ monomers were covalently coupled to one flow cell of CM7 sensor chips (GE Lifesciences, Uppsala, Sweden) via primary amines using the Amine Coupling Kit (GE Lifesciences, Uppsala, Sweden). As a control, ethanolamine was immobilized on the reference channel. […] One RU represents about 1 pg/mm^2 of the analytes on the surface matrix of the sensor chip. […] The stock solutions were diluted 1:1000 in HBS-EP buffer which contains 0.01M HEPES, pH7.4, 0.15M NaCl, 3 mM EDTA, and 0.005% of surfactant P20. HBS-EP+0.1% (v/v) DMSO was used as assay running buffer. The test solutions were injected over the sensor chip in concentrations ranging from 0.1 nM to 300 nM at a flow rate of 10 μl/min for 180 seconds at 25° C. Concentrations were tested in duplicate. The RUs elicited by the compound injected into the ethanolamine control flow cell was set as reference response and subtracted from the RUs elicited by the same compound injected to the Aβ saturated flow cell. The relationships between each RU obtained at the steady state of binding (plateau of the binding curve) and each concentration of the compound were plotted. After the analyte injection was stopped, HBS-EP buffer was flowed over the chip for 180 s to allow the bound analyte to dissociate from the immobilized Aβ and the dissociation curves were obtained. After the dissociation phase, regeneration solution (1M NaCl, 50 mM NaOH) was injected and flowed over the chip for 30 seconds to remove the residual bound analytes from the immobilized Aβ. BIACORE X100 control software Ver 1.1 was used to record the binding curves and BIACORE X100 evaluation software Ver 1.1 to analyze the curves (plot each RU at the steady state vs. concentration of analyte, fit the plot, determine KD values). The dissociation equilibrium constant KD of the analyte to the immobilized Aβ was determined from the steady-state levels estimating the maximum RU Rmax and calculating the KD as the concentration of the compound that elicited one-half of the Rmax.
# T2 sequence (P05067 672-713 limits assumed): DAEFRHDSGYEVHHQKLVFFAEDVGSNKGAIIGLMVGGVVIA
# T1 sequence (P05067 672-713 limits assumed): as above
SMILES,Papp A→B (human P-gp (PGP)) [×10⁻⁶ cm/s],efflux ratio (P-gp (human PGP)),solubility [1] [µM],Metabolic Stability (%) RLM [2] [%],Metabolic Stability (%) HLM [3] [%],IC50 (Aβ monomers) [nM],further results
CC(=O)NC(Cc1c[nH]c2ccccc12)C(=O)NC(C)(C)C(=O)O (stereo not drawn),1.5,0.7,253,>100,90,–,–
CC(C)(NC(=O)C(Cc1c[nH]c2ccccc12)NC=O)C(=O)O (stereo not drawn),1.3,0.7,222,>100,87,–,–
CC(C)(C)OC(=O)C(C)(C)NC(=O)[C@H](N)Cc1c[nH]c2ccccc12 [Compound 1] (H-[dW]-[Aib]-OtBu),–,–,–,–,–,–,inhibition of Aβ1-42 globulomer formation (Aβ1-42; 10:1 (inhibitor:Aβ peptide) molar ratio): inhibit; inhibition of Aβ1-42 globulomer formation (Aβ1-42; 20:1 (inhibitor:Aβ peptide) molar ratio): inhibit
CC(=O)N[C@H](Cc1c[nH]c2ccccc12)C(=O)NC(C)(C)C(=O)O [Compound A],–,–,–,–,–,2.8 ± 0.8,–
CC(=O)N(C)[C@H](Cc1c[nH]c2ccccc12)C(=O)NC(C)(C)C(=O)O [Compound B] (Ac-[dNMeW]-[Aib]-OH),–,–,–,–,–,56.4 ± 32.7,–
CC(C)(NC(=O)[C@@H](Cc1c[nH]c2ccccc12)NC=O)C(=O)O [Compound C],–,–,–,–,–,3.9 ± 0.1,–
CNC(=O)C(C)(C)NC(=O)[C@H](N)Cc1c[nH]c2ccccc12 [Compound E] (H-[dW]-[Aib]-NHMe),–,–,–,–,–,40.2 ± 3.4,–
CN(C)C(=O)C(C)(C)NC(=O)[C@H](N)Cc1c[nH]c2ccccc12 [Compound F] (H-[dW]-[Aib]-NMe2),–,–,–,–,–,4.2,–
CN(C(=O)[C@@H](Cc1c[nH]c2ccccc12)NC(=O)OC(C)(C)C)C(C)(C)C(=O)O [Compound Q] (Boc-[dW]-[NMeAib]-OH),–,–,–,–,–,3.8 ± 1.4,–
CC(=O)N[C@H](Cc1c[nH]c2ccccc12)C(=O)N(C)C(C)(C)C(=O)O [Compound R] (Ac-[dW]-[NMeAib]-OH),–,–,–,–,–,4.3 ± 1,–
CC(C)(C)OC(=O)N/C(=C\c1c[nH]c2ccccc12)C(=O)NC(C)(C)C(N)=O [Compound T],–,–,–,–,–,1.5 ± 0.6,–
CC(C)(C)OC(=O)N/C(=C\c1c[nH]c2ccccc12)C(=O)NC(C)(C)C(=O)O [Compound U],–,–,–,–,–,6.2 ± 1.9,–
CNC(=O)C(C)(C)N(C)C(=O)[C@@H](Cc1c[nH]c2ccccc12)NC(C)=O [Compound V] (Ac-[dW]-[NMeAib]-NHMe),–,–,–,–,–,0.5,–
CC(C)(C)OC(=O)N/C(=C\c1c[nH]c2ccccc12)C(=O)NC(C)(C)C(=O)O [drawing 63],2.1,1.2,> 280,81,95,–,–

# Further lines, with some results ahead:
Papp A→B (human P-gp (PGP)) [×10⁻⁶ cm/s],efflux ratio (P-gp (human PGP)),solubility [1] [µM],Metabolic Stability (%) RLM [2] [%],Metabolic Stability (%) HLM [3] [%],IC50 (Aβ monomers) [nM],SMILES,further results
1.3,0.8,> 278,–,–,–,CC(=O)N(C)C(Cc1c[nH]c2ccccc12)C(=O)NC(C)(C)C(=O)O (stereo not drawn) (Ac-[ξNMeW]-[Aib]-OH),–
1.6,–,> 355,>100,>100,–,CC(C)(NC(=O)C(N)Cc1c[nH]c2ccccc12)C(N)=O (stereo not drawn) (H-[ξW]-[Aib]-NH2),–
10.6,1.6,> 282,–,–,–,CC(C)(C)OC(=O)N/C(=C\c1c[nH]c2ccccc12)C(=O)NC(C)(C)C(N)=O [drawing 64],–
1.4,0.3,239,87,100,–,CN(C(=O)[C@@H](Cc1c[nH]c2ccccc12)NC(=O)OC(C)(C)C)C(C)(C)C(=O)O [drawing 65] (Boc-[dW]-[NMeAib]-OH),–
0.7,1,> 286,>100,88,–,CC(=O)N[C@H](Cc1c[nH]c2ccccc12)C(=O)N(C)C(C)(C)C(=O)O [drawing 66] (Ac-[dW]-[NMeAib]-OH),–
1.2,–,> 350,>100,>100,–,CC(C)(NC(=O)C(N)Cc1c[nH]c2ccccc12)C(=O)O (stereo not drawn) [reference compound],–
